# Measured values published in patent publication US9638702B2 (priority 2001, dated 2017).
# Like-named read-outs stand apart in the source and are kept apart here.
# What was measured:
# [1] = format: physicochemical
# [2] = format: physicochemical; remark: listed apart in the source
substance,measurement,setting,value
poly-L-lysine,CD minimum,[1]; pH 7,approximately 205 nm
same,CD minimum,[1]; pH 11,approximately 216 nm
same,absorbance plateau,[2]; pH 7,approximately 0.22
same,absorbance plateau,[2]; pH 11,approximately 0.12
